Data set [1] can be described thus: in vitro. Conditions: female, Balb/c, mouse, serum.
Procedure: Blood was drawn from Balb/c mice (female) of 8 weeks old, settled at 37° C. for 30 minutes and centrifuged at 13000 rpm for 10 minutes to give the serum as the supernatant. The serum thus obtained was frozen-stored at −80° C.
The stability test was performed by addition of 5 nmol of Compound (5 μL of aqueous solution) to 45 μL of serum and then settlement of the mixture at 37° C. The settlement was made at 3 points of time, including 2, 10 and 30 minutes. The sample after the settlement was boiled for 3 minutes and cooled on an ice bath. After 200 μL of acetonitrile/water (3/1) was added to the sample, the mixture was ultrasonicated for 5 minutes and then centrifuged at 5000 rpm for 1 minute. After 150 μL of the supernatant was diluted with 250 μL of distilled water, insoluble matters were removed by filtration through a filter having a pore size of 0.45 μm and 200 μL of the filtrate was applied on HPLC (220 nm) to determine the peak area of Compound. A ratio of the peak area to the area when Compound was treated for 0 minute under the same conditions was calculated as a mean value in 4 respective runs to determine the residual ratio. Next, by taking the calculated residual ratio on the ordinate and the time on the abscissa, a graph was prepared and approximated by an exponential function.
The preparative HPLC used was the LC-VP series manufactured by Shimadzu Corporation and Wakosil-II 5C18 HG (4.6 mm×100 mm) manufactured by Wako Pure Chemical Industries, Ltd. was used as the column. Eluant A (0.1% TFA-containing water) and eluant B (0.1% TFA-containing acetonitrile) were used as eluants. Analysis was performed by linear density gradient elution (25 minutes) at a flow rate of 1.0 ml/min. using eluants A/B: 100/0-0/50.
In data set [2] the target is T1, hOT7T175 (Homo sapiens, UniProt Q969F8, L364H). The data set is described as follows: hOT7T175 receptor binding activity: binding inhibition of Cy-5-labeled metastin (40-54) on hOT7T175-expressed CHO cells. Also on record: expressed in transfected cells; host or cells: CHO cells.
Data set [3] deals with T1, hOT7T175. The data set is described as follows: Intracellular Ca ion level-increasing activity using FLIPR in hOT7T175/CHO. In kind it is cell-based. Also on record: expressed in transfected cells; host or cells: CHO/dhfr- cells, obtained from ATCC. Conditions: relative, Metastin (1-54) = 1.

Molecules are shown by their SMILES. Numbered stars: 1 amine (or outer) side, 2 acyl side, 3 side chain; on linkers, the order of the positions; unused ones are H or OH. Square brackets hold non-standard residues; d marks the D form. Peptide text beside a SMILES is read from it. * marks the point of attachment. NαAmidinoTrp = N=C(N)N[C@@H](Cc1c[nH]c2ccccc12)C(=O)*; X1 = O=C([C@H](Cc1ccc2ccccc2n1)N[*:1])[*:2]; Diphenylacetyl = O=C(C(c1ccccc1)c1ccccc1)*; X7 = CNC(=N)NCCCC[C@H](N[*:1])C(=O)[*:2]; Phe(4-F) = N[C@@H](Cc1ccc(F)cc1)C(=O)O; X8 = CNC(=N)NCC[C@H](N[*:1])C(=O)[*:2]; Cyclohexanecarbonyl = O=C(C1CCCCC1)*; Arg(Me) = CNC(=N)NCCC[C@H](N)C(=O)O; Hydrocinnamoyl = O=C(CCc1ccccc1)*; 2Pal = N[C@@H](Cc1ccccn1)C(=O)O; X2 = O=C(Cc1c[nH]c2ccccc12)*; Orn = NCCC[C@H](N)C(=O)O; Hexanoyl = CCCCCC(=O)*; azaGly = NNC(=O)O

T1 sequence (Q969F8 whole entry L364H): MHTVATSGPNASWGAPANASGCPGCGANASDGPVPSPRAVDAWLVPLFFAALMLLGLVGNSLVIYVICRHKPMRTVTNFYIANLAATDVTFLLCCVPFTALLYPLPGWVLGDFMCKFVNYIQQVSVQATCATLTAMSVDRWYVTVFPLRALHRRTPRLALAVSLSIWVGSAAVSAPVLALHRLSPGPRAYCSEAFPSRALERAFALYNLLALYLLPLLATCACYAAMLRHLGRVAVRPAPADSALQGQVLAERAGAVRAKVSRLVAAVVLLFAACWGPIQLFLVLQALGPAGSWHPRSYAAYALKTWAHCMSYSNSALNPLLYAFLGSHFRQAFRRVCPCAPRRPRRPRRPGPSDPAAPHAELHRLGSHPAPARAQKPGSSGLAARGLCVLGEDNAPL

In data set [1], `CC[C@H](C)[C@H](NC(=O)[C@H](CCC(N)=O)NC(=O)[C@H](CCCNC(=N)N)NC(=O)[C@H](CO)NC(=O)[C@H](Cc1c[nH]cn1)NC(=O)[C@@H]1CCCN1C(=O)[C@H](C)NC(=O)[C@H](CO)NC(=O)[C@H](CC(C)C)NC(=O)CNC(=O)[C@@H]1CCCN1C(=O)[C@H](CCC(N)=O)NC(=O)[C@H](CCC(N)=O)NC(=O)[C@H](CCCNC(=N)N)NC(=O)[C@H](CO)NC(=O)CNC(=O)[C@H](CO)NC(=O)[C@H](CO)NC(=O)[C@H](CCC(=O)O)NC(=O)[C@@H]1CCCN1C(=O)[C@@H]1CCCN1C(=O)[C@@H]1CCCN1C(=O)[C@H](CO)NC(=O)[C@H](CC(C)C)NC(=O)[C@H](CO)NC(=O)[C@@H](NC(=O)CN)[C@@H](C)O)C(=O)N1CCC[C@H]1C(=O)N[C@@H](C)C(=O)N1CCC[C@H]1C(=O)N[C@@H](CCC(N)=O)C(=O)NCC(=O)N[C@@H](C)C(=O)N[C@H](C(=O)N[C@@H](CC(C)C)C(=O)N[C@H](C(=O)N[C@@H](CCC(N)=O)C(=O)N[C@@H](CCCNC(=N)N)C(=O)N[C@@H](CCC(=O)O)C(=O)N[C@@H](CCCCN)C(=O)N[C@@H](CC(=O)O)C(=O)N[C@@H](CC(C)C)C(=O)N1CCC[C@H]1C(=O)N[C@@H](CC(N)=O)C(=O)N[C@@H](Cc1ccc(O)cc1)C(=O)N[C@@H](CC(N)=O)C(=O)N[C@@H](Cc1c[nH]c2ccccc12)C(=O)N[C@@H](CC(N)=O)C(=O)N[C@@H](CO)C(=O)N[C@@H](Cc1ccccc1)C(=O)NCC(=O)N[C@@H](CC(C)C)C(=O)N[C@@H](CCCNC(=N)N)C(=O)N[C@@H](Cc1ccccc1)C(N)=O)C(C)C)C(C)C` [Compound No. 1, Metastin, reference compound] gave a half-life at 100 µM of 22.5 min.

In data set [1], `CNC(N)=NCCC[C@H](NC(=O)[C@H](CC(C)C)NC(=O)CNC(=O)[C@H](Cc1ccccc1)NC(=O)[C@H](CO)NC(=O)[C@H](CC(N)=O)NC(=O)[C@H](Cc1c[nH]c2ccccc12)NC(=O)[C@H](CC(N)=O)NC(=O)[C@@H](N)Cc1ccc(O)cc1)C(=O)N[C@@H](Cc1ccccc1)C(N)=O` [Compound No. 82] registered a half-life at 100 µM of 1.8 min. This half-life at 100 µM is about 12-fold lower than that of the compound before.

In turn, `CNC(=N)NCCC[C@H](NC(=O)[C@H](CC(C)C)NC(=O)NNC(=O)[C@H](Cc1ccccc1)NC(=O)[C@H](CO)NC(=O)[C@H](CC(N)=O)NC(=O)Cc1c[nH]c2ccccc12)C(=O)N[C@@H](Cc1ccccc1)C(N)=O` [Compound No. 266, Indol-3-acetyl-Asn-Ser-Phe-AzaGly-Leu-Arg(Me)-Phe-NH2] (X2-NSF[azaGly]L[Arg(Me)]F-NH2) came in with a half-inhibitory concentration (IC50) in data set [2] of 230 nM. Moreover, in data set [3], the “Specific Activity (intracellular Ca ion level-increasing activity)” value is 2.

`CNC(=N)NCCC[C@H](NC(=O)[C@H](CC(C)C)NC(=O)NNC(=O)[C@H](Cc1ccccc1)NC(=O)[C@H](CO)NC(=O)[C@H](CC(N)=O)NC(=O)C(c1ccccc1)c1ccccc1)C(=O)N[C@@H](Cc1ccccc1)C(N)=O` [Compound No. 268, Diphenylacetyl-Asn-Ser-Phe-AzaGly-Leu-Arg(Me)-Phe-NH2] (Diphenylacetyl-NSF[azaGly]L[Arg(Me)]F-NH2) returned an IC50 in data set [2] of 550 nM. For the same compound, the “Specific Activity (intracellular Ca ion level-increasing activity)” value in data set [3] turned out to be 1.

Compound `CNC(=N)NCCC[C@H](NC(=O)[C@H](CC(C)C)NC(=O)NNC(=O)[C@H](Cc1ccccc1)NC(=O)[C@H](CO)NC(=O)[C@H](CC(N)=O)NC(=O)CCc1ccccc1)C(=O)N[C@@H](Cc1ccccc1)C(N)=O` [Compound No. 269, 3-Phenylpropionyl-Asn-Ser-Phe-AzaGly-Leu-Arg(Me)-Phe-NH2] (Hydrocinnamoyl-NSF[azaGly]L[Arg(Me)]F-NH2) registered an IC50 in data set [2] of 470 nM. Besides, the “Specific Activity (intracellular Ca ion level-increasing activity)” value in data set [3] was 3.

In data set [2], `CNC(=N)NCCC[C@H](NC(=O)[C@H](CC(C)C)NC(=O)NNC(=O)[C@H](Cc1ccccc1)NC(=O)[C@H](Cc1ccccc1)NC(=O)[C@H](CO)NC(=O)[C@H](CC(N)=O)NC(=O)[C@H](Cc1ccccc1)NC(=O)[C@H](CC(N)=O)NC(=O)[C@H](N)Cc1ccc(O)cc1)C(=O)N[C@@H](Cc1ccccc1)C(N)=O` [Compound No. 270, D-Tyr-Asn-Phe-Asn-Ser-Phe-Phe-AzaGly-Leu-Arg(Me)-Phe-NH2] (H-[dY]NFNSFF[azaGly]L[Arg(Me)]F-NH2) showed a half-inhibitory concentration (IC50) of 15 nM. Also, the “Specific Activity (intracellular Ca ion level-increasing activity)” value in data set [3] is on record as 1.

`CNC(=N)NCCC[C@H](NC(=O)[C@H](CC(C)C)NC(=O)NNC(=O)[C@H](Cc1ccccc1)NC(=O)[C@H](CO)NC(=O)[C@H](CC(N)=O)NC(=O)[C@@H](N)Cc1c[nH]c2ccccc12)C(=O)N[C@@H](Cc1ccccc1)C(N)=O` [Compound No. 271, Trp-Asn-Ser-Phe-AzaGly-Leu-Arg(Me)-Phe-NH2] (H-WNSF[azaGly]L[Arg(Me)]F-NH2; N-terminus assumed) registered an IC50 in data set [2] of 120 nM. Also, the “Specific Activity (intracellular Ca ion level-increasing activity)” value in data set [3] came out at 1.

`CNC(=N)NCCC[C@H](NC(=O)[C@H](CC(C)C)NC(=O)NNC(=O)[C@H](Cc1ccccc1)NC(=O)[C@H](CO)NC(=O)[C@H](CC(N)=O)NC(=O)[C@H](Cc1c[nH]c2ccccc12)NC(C)=O)C(=O)N[C@@H](Cc1ccccc1)C(N)=O` [Compound No. 272, Acetyl-Trp-Asn-Ser-Phe-AzaGly-Leu-Arg(Me)-Phe-NH2] (Ac-WNSF[azaGly]L[Arg(Me)]F-NH2): the IC50 in data set [2] is 540 nM. Moreover, in data set [3], the “Specific Activity (intracellular Ca ion level-increasing activity)” value was 2.

In data set [2], `CNC(=N)NCCC[C@H](NC(=O)[C@H](CC(C)C)NC(=O)NNC(=O)[C@H](Cc1ccccc1)NC(=O)[C@H](CO)NC(=O)[C@H](CC(N)=O)NC(=O)[C@H](Cc1c[nH]c2ccccc12)NC(=N)N)C(=O)N[C@@H](Cc1ccccc1)C(N)=O` [Compound No. 273, Amidino-Trp-Asn-Ser-Phe-AzaGly-Leu-Arg(Me)-Phe-NH2] (NαAmidinoTrp-NSF[azaGly]L[Arg(Me)]F-NH2) registered an IC50 of 300 nM. Also, the “Specific Activity (intracellular Ca ion level-increasing activity)” value in data set [3] was found to be 5.

Take `CCCCCC(=O)N[C@@H](CC(N)=O)C(=O)N[C@@H](CO)C(=O)N[C@@H](Cc1ccccc1)C(=O)NNC(=O)N[C@@H](CC(C)C)C(=O)N[C@@H](CCCNC(=N)NC)C(=O)N[C@@H](Cc1ccccc1)C(N)=O` [Compound No. 277, n-Hexanoyl-Asn-Ser-Phe-AzaGly-Leu-Arg(Me)-Phe-NH2] (Hexanoyl-NSF[azaGly]L[Arg(Me)]F-NH2): the concentration for half-maximal inhibition (IC50) in data set [2] was 54 nM. For the same compound, in data set [3], the “Specific Activity (intracellular Ca ion level-increasing activity)” value turned out to be 2.

As to `CNC(=N)NCCC[C@H](NC(=O)[C@H](CC(C)C)NC(=O)NNC(=O)[C@H](Cc1ccccc1)NC(=O)[C@H](CO)NC(=O)[C@H](CC(N)=O)NC(=O)C1CCCCC1)C(=O)N[C@@H](Cc1ccccc1)C(N)=O` [Compound No. 278, Cyclohexanecarbonyl-Asn-Ser-Phe-AzaGly-Leu-Arg(Me)-Phe-NH2] (Cyclohexanecarbonyl-NSF[azaGly]L[Arg(Me)]F-NH2), the IC50 in data set [2] was 110 nM. For the same compound, the “Specific Activity (intracellular Ca ion level-increasing activity)” value in data set [3] is 2.

Take `CNC(=N)NCCC[C@H](NC(=O)[C@H](CC(C)C)NC(=O)CNC(=O)[C@H](Cc1ccccn1)NC(=O)[C@H](CO)NC(=O)[C@H](CC(N)=O)NC(=O)[C@H](Cc1c[nH]c2ccccc12)NC(=O)[C@H](CC(N)=O)NC(=O)[C@H](N)Cc1ccc(O)cc1)C(=O)N[C@@H](Cc1ccccc1)C(N)=O` [Compound No. 281, D-Tyr-Asn-Trp-Asn-Ser-Pya(2)-Gly-Leu-Arg(Me)-Phe-NH2] (H-[dY]NWNS[2Pal]GL[Arg(Me)]F-NH2): the 50% inhibitory concentration (IC50) in data set [2] was determined as 230 nM. For the same compound, the “Specific Activity (intracellular Ca ion level-increasing activity)” value in data set [3] is “½”.

Turning to `CNC(=N)NCCC[C@H](NC(=O)[C@H](CC(C)C)NC(=O)NNC(=O)[C@H](Cc1ccccc1)NC(=O)[C@H](CO)NC(=O)[C@H](CC(N)=O)NC(=O)[C@H](Cc1ccc2ccccc2n1)NC(=O)[C@H](CC(N)=O)NC(=O)[C@H](N)Cc1ccc(O)cc1)C(=O)N[C@@H](Cc1ccccc1)C(N)=O` [Compound No. 301, D-Tyr-Asn-Ala(2-Qui)-Asn-Ser-Phe-AzaGly-Leu-Arg(Me)-Phe-NH2] (H-[dY]N[X1]NSF[azaGly]L[Arg(Me)]F-NH2), in data set [2], the IC50 was found to be 15 nM. Also, the “Specific Activity (intracellular Ca ion level-increasing activity)” value in data set [3] is on record as 1.

As for `CNC(=N)NCC[C@H](NC(=O)[C@H](CC(C)C)NC(=O)CNC(=O)[C@H](Cc1ccccc1)NC(=O)[C@H](CO)NC(=O)[C@H](CC(N)=O)NC(=O)[C@H](Cc1c[nH]c2ccccc12)NC(=O)[C@H](CC(N)=O)NC(=O)[C@@H](N)Cc1ccc(O)cc1)C(=O)N[C@@H](Cc1ccccc1)C(N)=O` [Compound No. 311] (H-YNWNSFGL[X8]F-NH2), the 50% inhibitory concentration (IC50) in data set [2] was determined as 470 nM. Besides, the “Specific Activity (intracellular Ca ion level-increasing activity)” value in data set [3] came to 1.

Compound `CNC(=N)NCCCC[C@H](NC(=O)[C@H](CC(C)C)NC(=O)CNC(=O)[C@H](Cc1ccccc1)NC(=O)[C@H](CO)NC(=O)[C@H](CC(N)=O)NC(=O)[C@H](Cc1c[nH]c2ccccc12)NC(=O)[C@H](CC(N)=O)NC(=O)[C@@H](N)Cc1ccc(O)cc1)C(=O)N[C@@H](Cc1ccccc1)C(N)=O` [Compound No. 312] (H-YNWNSFGL[X7]F-NH2) had an IC50 in data set [2] of 100 nM. The “Specific Activity (intracellular Ca ion level-increasing activity)” value in data set [3] is on record as 3.

`CC(C)C[C@H](NC(=O)CNC(=O)[C@H](Cc1ccccc1)NC(=O)[C@H](CO)NC(=O)[C@H](CC(N)=O)NC(=O)[C@H](Cc1c[nH]c2ccccc12)NC(=O)[C@H](CC(N)=O)NC(=O)[C@@H](N)Cc1ccc(O)cc1)C(=O)N[C@@H](CCCN)C(=O)N[C@@H](Cc1ccccc1)C(N)=O` [Compound No. 314] (H-YNWNSFGL[Orn]F-NH2) displayed a 50% inhibitory concentration (IC50) in data set [2] of 470 nM. Further, in data set [3], the “Specific Activity (intracellular Ca ion level-increasing activity)” value is on record as 1.

In data set [2], `CNC(=N)NCCC[C@H](NC(=O)[C@H](CC(C)C)NC(=O)NNC(=O)[C@H](Cc1ccccc1)NC(=O)[C@H](CO)NC(=O)[C@H](CC(N)=O)NC(=O)[C@@H](NC(=O)[C@@H](CC(N)=O)NC(=O)[C@H](N)Cc1ccc(O)cc1)[C@@H](C)O)C(=O)N[C@@H](Cc1ccc(F)cc1)C(N)=O` [Compound No. 316, D-Tyr-D-Asn-Thr-Asn-Ser-Phe-AzaGly-Leu-Arg(Me)-Phe(4F)-NH2] (H-[dY][dN]TNSF[azaGly]L[Arg(Me)][Phe(4-F)]-NH2) gave an IC50 of 26 nM. Besides, the “Specific Activity (intracellular Ca ion level-increasing activity)” value in data set [3] amounted to 1.

These data come from US8361968B2 (Takeda Pharmaceutical Company Limited, priority 2002, dated 2013).
